According to ChEMBL document CHEMBL1201862, “PubChem BioAssay data set” (2004):
Activity calls are given as the source filed them.

Experiments:
Vero [1] = assay: cells; type: functional, cell-based; details: Chlorocebus sabaeus
Vero [2] = assay: cells; type: functional; details: Chlorocebus sabaeus
Paired box protein Pax-8 = Paired box protein Pax-8 (Homo sapiens, UniProt Q06710); assay: PAX8 transcriptional activity inhibition in RMG-I – RMG-I cells, luciferase, cherry-pick, dose response (AID 687027); type: functional, cell-based;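 note: luciferase reporter driven by Pax8 target thyroperoxidase promoter measured by SteadyGlo luminescence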
Aminopeptidase N = target: T1, Aminopeptidase N (Plasmodium falciparum FcB1/Columbia, UniProt O96935); assay: malaria alanyl aminopeptidase activity blockers – biochemical, fluorogenic H-Leu-NHMec substrate, 1536-well (AID 1445); design: species or system Plasmodium falciparum 3D7, 3D7
T1 sequence (O96935 whole entry): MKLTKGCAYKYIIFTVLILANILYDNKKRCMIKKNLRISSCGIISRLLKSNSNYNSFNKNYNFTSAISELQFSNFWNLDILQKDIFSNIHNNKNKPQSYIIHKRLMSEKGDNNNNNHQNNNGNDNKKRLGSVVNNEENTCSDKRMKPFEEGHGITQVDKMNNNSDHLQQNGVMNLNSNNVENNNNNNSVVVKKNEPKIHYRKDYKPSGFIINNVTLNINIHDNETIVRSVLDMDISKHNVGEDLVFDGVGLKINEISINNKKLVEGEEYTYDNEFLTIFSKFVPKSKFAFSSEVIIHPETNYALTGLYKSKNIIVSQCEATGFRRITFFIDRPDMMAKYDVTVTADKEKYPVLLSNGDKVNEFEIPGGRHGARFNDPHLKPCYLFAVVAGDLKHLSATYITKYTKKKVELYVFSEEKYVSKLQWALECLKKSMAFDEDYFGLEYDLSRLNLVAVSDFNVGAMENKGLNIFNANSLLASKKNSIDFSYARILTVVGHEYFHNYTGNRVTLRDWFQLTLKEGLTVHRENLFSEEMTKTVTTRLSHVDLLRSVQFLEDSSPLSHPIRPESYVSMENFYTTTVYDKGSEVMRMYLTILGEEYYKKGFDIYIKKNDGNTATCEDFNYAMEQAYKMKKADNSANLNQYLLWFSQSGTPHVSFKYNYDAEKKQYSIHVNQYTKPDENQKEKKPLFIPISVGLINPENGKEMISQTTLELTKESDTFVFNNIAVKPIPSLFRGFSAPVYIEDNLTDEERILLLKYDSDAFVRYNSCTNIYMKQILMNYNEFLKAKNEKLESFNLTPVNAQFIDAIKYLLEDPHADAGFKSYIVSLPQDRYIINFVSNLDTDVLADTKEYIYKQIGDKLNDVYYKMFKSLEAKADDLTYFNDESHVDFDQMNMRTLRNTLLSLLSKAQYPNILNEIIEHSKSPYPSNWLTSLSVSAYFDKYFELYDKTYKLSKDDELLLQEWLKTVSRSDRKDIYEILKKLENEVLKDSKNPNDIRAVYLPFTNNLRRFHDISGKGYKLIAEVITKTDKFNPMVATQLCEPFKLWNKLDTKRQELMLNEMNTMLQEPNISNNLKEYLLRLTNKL

Prothrombin = Prothrombin (Homo sapiens, UniProt P00734); assay: Thrombin 1536 HTS Dose Response Confirmation. [Related pubchem assays: 1046 (Thrombin 1536 HTS; hits were confirmed in this assay)]; type: functional
[3] = viability of uninfected HEp-2 cells – cell-based, HTS, cytotoxicity control for RSV inhibitor project, dose response (AID 2410); type: functional; details: human respiratory syncytial virus
Leucine aminopeptidase = target: T2, Leucine aminopeptidase (Plasmodium falciparum 3D7, UniProt Q8IL11); assay: P. falciparum M17LAP inhibitors, primary screen, biochemical, fluorogenic H-Leu-NHMec substrate, 1536-well (AID 1619); type: functional
T2 sequence (Q8IL11 whole entry): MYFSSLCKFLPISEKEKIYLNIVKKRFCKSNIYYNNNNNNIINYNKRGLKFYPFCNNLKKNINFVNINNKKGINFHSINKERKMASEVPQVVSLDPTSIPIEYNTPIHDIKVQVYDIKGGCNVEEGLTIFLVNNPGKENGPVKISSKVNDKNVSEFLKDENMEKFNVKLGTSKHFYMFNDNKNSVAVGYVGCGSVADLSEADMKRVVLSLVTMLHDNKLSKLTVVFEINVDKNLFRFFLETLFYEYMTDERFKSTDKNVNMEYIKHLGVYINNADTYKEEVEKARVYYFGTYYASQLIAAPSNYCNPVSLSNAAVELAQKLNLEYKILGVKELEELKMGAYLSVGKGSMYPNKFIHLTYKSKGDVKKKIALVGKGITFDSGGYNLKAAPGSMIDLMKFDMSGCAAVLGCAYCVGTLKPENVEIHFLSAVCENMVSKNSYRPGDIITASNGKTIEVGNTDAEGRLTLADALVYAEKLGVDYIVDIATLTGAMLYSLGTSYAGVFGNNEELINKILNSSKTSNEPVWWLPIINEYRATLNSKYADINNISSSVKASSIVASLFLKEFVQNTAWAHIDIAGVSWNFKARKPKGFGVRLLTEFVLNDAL

[4] = target: Voltage-dependent T-type calcium channel subunit alpha-1H (Homo sapiens, UniProt O95180); type: functional;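 note: channel activity triggered by adding a high calcium stimulation buffer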
[5] = target: T3, Carboxy-terminal domain RNA polymerase II polypeptide A small phosphatase 1 (Homo sapiens, UniProt Q9GZU7); assay: CTDSP1 inhibitors, concentration-response, biochemical, absorbance readout, ultra-high-throughput screen actives (AID 540297); type: functional
T3 sequence (Q9GZU7 whole entry): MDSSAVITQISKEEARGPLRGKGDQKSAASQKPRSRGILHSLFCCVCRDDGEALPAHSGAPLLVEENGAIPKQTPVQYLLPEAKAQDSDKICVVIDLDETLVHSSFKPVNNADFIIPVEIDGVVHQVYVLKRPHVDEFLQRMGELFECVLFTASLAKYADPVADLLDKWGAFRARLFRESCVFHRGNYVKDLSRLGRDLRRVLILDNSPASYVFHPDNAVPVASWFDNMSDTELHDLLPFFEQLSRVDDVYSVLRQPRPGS

[6] = microbe, parasite or virus in culture; type: functional; details: Mycobacterium tuberculosis
[7] = THP-1 cell cytotoxicity, dose response, cytotoxicity control for non-replicating M. tuberculosis project (AID 489025); type: functional
[8] = Vero E6 cell cytotoxicity, dose response, cytotoxicity control for non-replicating M. tuberculosis project, secondary assay (AID 492998); type: functional, VeroE6; details: Vero C1008
[9] = blockers of HIV-1 envelope-mediated cell-cell fusion – cherry-pick, dose response (AID 652057); type: functional, cell-based
[10] = blockers of HIV-1 ZM109 envelope-driven cell-cell fusion – HeLa effector, CEM target cells, luciferase, cherry-pick, dose response (AID 652058); type: functional, cell-based;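 note: luciferase signal from HIV-1 Env mediated cell-cell fusion of effector and target cells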
[11] = off-target signal loss in HeLa-CEM21 co-culture – HeLa F-luc CTL cells, cherry-picked, counter-screen for HIV-1 Env fusion inhibitor project, dose response (AID 652040); type: functional, cell-based;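 note: potency for signal decrease marking cytotoxic or nonspecific inhibition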
[12] = HIV-1 AD8 envelope cell-cell fusion blockers – cherry-pick, dose response (AID 652062); type: functional, cell-based;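 note: luciferase signal from cell-cell fusion driven by HIV-1 clade B AD8 Env; potency is for inhibitors of fusion seen as a drop in luminescence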
[13] = target: Heat shock protein HSP 90-alpha (Homo sapiens, UniProt P07900); type: functional, organism-based
[14] = target: T4, Microphthalmia-associated transcription factor (Homo sapiens, UniProt O75030); assay: reducers of TRPM1 reporter luminescence, concentration series – cell-based, SK-MEL-5, cherry-picked, set 3, MITF inhibitor project, dose response (AID 493073); type: functional;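 note: SK-MEL-5 melanoma cells with luciferase driven by the MITF target TRPM1 promoter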
T4 sequence (O75030 whole entry): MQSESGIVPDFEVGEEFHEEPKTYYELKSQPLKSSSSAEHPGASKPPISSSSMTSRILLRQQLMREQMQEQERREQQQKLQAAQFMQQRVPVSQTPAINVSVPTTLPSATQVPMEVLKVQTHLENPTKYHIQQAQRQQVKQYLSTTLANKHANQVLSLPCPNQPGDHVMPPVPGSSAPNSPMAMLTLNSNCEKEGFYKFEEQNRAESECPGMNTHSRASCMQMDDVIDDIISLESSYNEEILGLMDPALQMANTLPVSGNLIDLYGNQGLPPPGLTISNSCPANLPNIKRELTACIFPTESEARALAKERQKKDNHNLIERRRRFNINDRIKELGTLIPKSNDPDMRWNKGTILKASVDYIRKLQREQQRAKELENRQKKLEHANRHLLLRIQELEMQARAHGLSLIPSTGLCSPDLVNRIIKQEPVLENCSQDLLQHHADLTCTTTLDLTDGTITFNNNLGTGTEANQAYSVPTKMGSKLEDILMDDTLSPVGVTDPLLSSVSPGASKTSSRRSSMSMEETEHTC

cells = type: functional
[15] = target: Luciferin 4-monooxygenase (Photinus pyralis, UniProt P08659); assay: inhibition of purified Photinus pyralis luciferase – biochemical, luminescence, dose response (AID 1891)
[16] = Luminescence Cell-Based Dose Confirmation HTS to Identify Inhibitors of Platelet Dense Granule Release. [Related pubchem assays: 1663 (Primary HTS), 1678 (Summary of Project)]; type: functional

Chain of Voltage-dependent T-type calcium channel subunit alpha-1H (O95180 whole entry, the tested form may be a part): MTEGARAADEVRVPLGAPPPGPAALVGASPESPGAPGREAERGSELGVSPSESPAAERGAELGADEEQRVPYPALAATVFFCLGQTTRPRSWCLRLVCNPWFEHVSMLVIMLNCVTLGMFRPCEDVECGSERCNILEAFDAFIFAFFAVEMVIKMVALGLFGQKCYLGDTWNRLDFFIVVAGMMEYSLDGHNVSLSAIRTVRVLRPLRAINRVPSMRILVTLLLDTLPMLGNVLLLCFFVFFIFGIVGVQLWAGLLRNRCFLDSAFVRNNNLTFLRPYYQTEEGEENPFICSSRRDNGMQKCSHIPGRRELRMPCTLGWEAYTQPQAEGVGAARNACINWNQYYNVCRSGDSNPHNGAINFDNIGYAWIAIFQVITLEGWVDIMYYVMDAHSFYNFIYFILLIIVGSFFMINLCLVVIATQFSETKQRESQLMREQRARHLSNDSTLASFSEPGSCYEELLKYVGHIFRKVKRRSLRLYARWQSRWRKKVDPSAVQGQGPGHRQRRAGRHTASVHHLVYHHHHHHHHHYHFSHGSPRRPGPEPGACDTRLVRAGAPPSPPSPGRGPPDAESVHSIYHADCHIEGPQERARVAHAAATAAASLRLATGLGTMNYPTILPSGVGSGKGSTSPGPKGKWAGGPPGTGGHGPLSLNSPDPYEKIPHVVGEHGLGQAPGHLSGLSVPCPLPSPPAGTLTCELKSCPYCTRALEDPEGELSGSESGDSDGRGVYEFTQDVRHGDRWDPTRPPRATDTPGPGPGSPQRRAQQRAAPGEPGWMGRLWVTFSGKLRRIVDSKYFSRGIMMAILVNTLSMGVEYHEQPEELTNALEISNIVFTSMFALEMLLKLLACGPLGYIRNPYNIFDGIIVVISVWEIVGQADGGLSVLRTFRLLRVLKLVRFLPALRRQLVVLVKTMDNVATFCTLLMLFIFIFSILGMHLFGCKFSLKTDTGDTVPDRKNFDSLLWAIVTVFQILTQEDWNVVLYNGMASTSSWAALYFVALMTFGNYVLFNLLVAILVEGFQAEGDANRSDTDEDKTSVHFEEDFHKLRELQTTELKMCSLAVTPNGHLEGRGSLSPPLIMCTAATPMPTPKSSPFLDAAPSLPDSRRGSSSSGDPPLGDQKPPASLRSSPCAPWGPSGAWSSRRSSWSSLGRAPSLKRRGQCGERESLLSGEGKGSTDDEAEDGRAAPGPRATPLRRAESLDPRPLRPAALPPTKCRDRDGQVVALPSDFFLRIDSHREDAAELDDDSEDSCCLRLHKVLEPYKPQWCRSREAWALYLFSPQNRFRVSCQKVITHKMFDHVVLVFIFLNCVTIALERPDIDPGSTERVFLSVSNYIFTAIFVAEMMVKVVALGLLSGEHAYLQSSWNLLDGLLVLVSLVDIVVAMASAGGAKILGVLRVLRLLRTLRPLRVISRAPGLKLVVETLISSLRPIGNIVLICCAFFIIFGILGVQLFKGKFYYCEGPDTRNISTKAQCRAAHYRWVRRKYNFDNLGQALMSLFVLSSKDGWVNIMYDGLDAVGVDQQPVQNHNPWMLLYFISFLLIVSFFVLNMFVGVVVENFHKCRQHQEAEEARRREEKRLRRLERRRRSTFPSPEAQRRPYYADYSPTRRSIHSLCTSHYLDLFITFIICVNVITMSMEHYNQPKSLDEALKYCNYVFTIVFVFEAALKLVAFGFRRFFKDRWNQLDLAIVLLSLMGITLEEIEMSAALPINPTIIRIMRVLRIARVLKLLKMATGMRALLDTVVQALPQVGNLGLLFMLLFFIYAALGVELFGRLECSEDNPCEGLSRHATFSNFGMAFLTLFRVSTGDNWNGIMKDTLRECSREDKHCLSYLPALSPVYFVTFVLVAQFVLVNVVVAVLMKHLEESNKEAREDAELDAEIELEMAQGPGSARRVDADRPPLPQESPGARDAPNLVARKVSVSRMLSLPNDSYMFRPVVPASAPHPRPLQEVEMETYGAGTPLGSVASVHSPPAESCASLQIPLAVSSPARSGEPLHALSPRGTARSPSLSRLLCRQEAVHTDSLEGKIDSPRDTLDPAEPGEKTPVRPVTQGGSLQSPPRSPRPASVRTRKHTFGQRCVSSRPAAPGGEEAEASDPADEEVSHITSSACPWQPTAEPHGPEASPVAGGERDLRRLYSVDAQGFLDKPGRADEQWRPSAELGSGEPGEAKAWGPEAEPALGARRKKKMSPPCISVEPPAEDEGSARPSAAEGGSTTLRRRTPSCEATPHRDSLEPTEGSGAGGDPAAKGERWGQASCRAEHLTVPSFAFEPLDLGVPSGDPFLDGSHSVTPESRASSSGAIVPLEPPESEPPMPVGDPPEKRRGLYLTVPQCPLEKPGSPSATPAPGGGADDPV
Chain of Luciferin 4-monooxygenase (P08659 whole entry): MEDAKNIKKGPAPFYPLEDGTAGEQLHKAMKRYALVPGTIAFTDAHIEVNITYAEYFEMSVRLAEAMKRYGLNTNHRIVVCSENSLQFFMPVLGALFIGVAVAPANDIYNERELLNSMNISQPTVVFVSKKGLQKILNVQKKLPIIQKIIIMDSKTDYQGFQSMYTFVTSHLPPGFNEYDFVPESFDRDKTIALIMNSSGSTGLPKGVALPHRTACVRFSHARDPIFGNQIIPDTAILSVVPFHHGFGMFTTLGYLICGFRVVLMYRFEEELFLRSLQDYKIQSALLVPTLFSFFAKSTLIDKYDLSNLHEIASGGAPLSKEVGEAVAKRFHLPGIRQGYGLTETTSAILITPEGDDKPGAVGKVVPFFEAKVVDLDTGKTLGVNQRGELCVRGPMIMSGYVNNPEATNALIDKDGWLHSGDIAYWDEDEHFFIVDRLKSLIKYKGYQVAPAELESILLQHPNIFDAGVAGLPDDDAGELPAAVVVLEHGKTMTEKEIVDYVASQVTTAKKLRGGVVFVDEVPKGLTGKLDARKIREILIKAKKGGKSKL
Chain of Paired box protein Pax-8 (Q06710 whole entry): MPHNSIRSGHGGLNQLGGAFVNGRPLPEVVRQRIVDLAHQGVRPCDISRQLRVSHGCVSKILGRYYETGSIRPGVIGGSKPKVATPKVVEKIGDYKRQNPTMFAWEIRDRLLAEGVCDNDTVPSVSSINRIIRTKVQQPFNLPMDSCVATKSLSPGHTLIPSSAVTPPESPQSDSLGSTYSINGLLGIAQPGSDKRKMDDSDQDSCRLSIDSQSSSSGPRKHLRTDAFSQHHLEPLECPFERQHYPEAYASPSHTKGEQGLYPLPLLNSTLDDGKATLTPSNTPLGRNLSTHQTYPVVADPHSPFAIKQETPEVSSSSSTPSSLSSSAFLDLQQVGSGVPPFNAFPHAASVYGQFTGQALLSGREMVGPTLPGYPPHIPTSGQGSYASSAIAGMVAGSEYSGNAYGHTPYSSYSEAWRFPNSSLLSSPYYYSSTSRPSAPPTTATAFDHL

## C[C@]12CC[C@H](O)C[C@@H]1CC[C@@H]1[C@@H]2CC[C@]2(C)[C@@H](C3=CC(=O)OC3)CC[C@]12O
Vero [1]
  IC50: < 0.05 µM (active)
Vero [2]
  CC50: 1.65 µM (active)
Paired box protein Pax-8
  AC50: 2.09 µM (active)

## CCC(C)(C)NC(=O)CN(Cc1ccc2c(c1)OCO2)C(=O)CCC(=O)Nc1nccs1
Aminopeptidase N
  IC50: 87.6 µM (active)

## O=C(CN1C(=O)C2CCCCN2C(=O)c2ccccc21)N1CCCc2ccccc21 (configuration not stated)
Aminopeptidase N
  IC50: 103 µM (active)

## Cc1ccccc1NC(=O)CCl
Prothrombin
  IC50: > 50 µM (not active)

## N#C/C(=C/c1ccc(N2CCCCC2)o1)C(=O)NCCc1c[nH]c2ccccc12
[3]
  CC50: 49.6 µM (active)
Vero [2]
  CC50: > 25 µM (active)

## CCc1cc2cc3c(cc2nc1SCC(=O)Nc1cc(OC)c(OC)cc1C(=O)O)OCO3
Leucine aminopeptidase
  IC50: < 1 µM (active)
Aminopeptidase N
  IC50: 76 µM (active)

## Cc1cccc(N2CCN(C(=O)C(Cc3ccccc3)n3cccc3)CC2)c1C (configuration not stated)
[4]
  EC50: 8.08 µM (active)

## Nc1c(C(=O)OCC(=O)Nc2cccc([N+](=O)[O-])c2)[nH]c(=O)[nH]c1=O
[5]
  IC50: 7.55 µM (active)

## CCOC(=O)Cc1csc(SCC(=O)Nc2sc3c(c2C(N)=O)CCC3)n1
[5]
  IC50: 4.63 µM (active)

## CCN1CSC(=S)N(Cc2ccccc2)C1
[6]
  CC50: 20.7 µM (active)
Vero [2]
  CC50: 16.1 µM (active)

## O=C(Nc1ccccc1C(F)(F)F)c1ccc(CN2CCC(Cc3ccccc3)CC2)cc1
[4]
  EC50: 0.227 µM (active)

## COc1ccc(C)c2sc(NC(=O)CCS(=O)(=O)c3ccccc3)nc12
[7]
  CC50: 23.1 µM (active)
[8]
  CC50: > 20 µM (active)

## CCn1cc(C(=O)NCc2ccc3c(c2)OCO3)c(=O)c2cc(S(=O)(=O)N3CCOCC3)ccc21
Prothrombin
  IC50: 0.158 µM (active)

## COc1cc(NC(=O)C2COc3ccccc3O2)c(OC)cc1Cl (configuration not stated)
[4]
  EC50: 8.09 µM (active)

## COc1cc(OC)cc(C(=O)N[C@H](C(=O)NCCc2c[nH]c3ccccc23)C(C)C)c1
[9]
  AC50: 11 µM (active)
[10]
  AC50: 16.8 µM (active)
[11]
  AC50: 35.6 µM (active)

## CC(=O)Nc1sc2c(c1C(c1ccc(F)cc1)N1CCOCC1)CCCC2 (configuration not stated)
[9]
  AC50: 5.3 µM (active)
[10]
  AC50: 11.6 µM (active)
[11]
  AC50: > 70 µM (inactive)
[12]
  AC50: 32.8 µM (active)

## Oc1ccc(-c2nc3ccc4ccccc4c3c3c2CCC3)cc1O
[13]
  AC50: 6.97 µM (active)

## O=C1CC(C(=O)N(CC2CCCO2)C(C(=O)NC2CCCCC2)c2ccncc2)CS1 (configuration not stated)
[9]
  AC50: 7.23 µM (active)
[10]
  AC50: 6.85 µM (active)
[11]
  AC50: 30.2 µM (active)
[12]
  AC50: 37.8 µM (active)

## CCN(CC)S(=O)(=O)c1ccc(N2CCCC2)c(NC(=O)c2ccc([N+](=O)[O-])o2)c1
[14]
  AC50: 3.18 µM (active)
Vero [1]
  IC50: > 25 µM (active)
Vero [2]
  CC50: 17.8 µM (active)

## COc1ccc(OC)c(NC(=O)CSc2ncnc3sc(C)cc23)c1
[5]
  IC50: 5.46 µM (active)

## CCCCCCCCCCCCCC(=O)NO
[13]
  AC50: 2.71 µM (active)

## Cc1ccc(-c2ccc(/C=N/NC(=O)CN3CCOCC3)o2)cc1[N+](=O)[O-]
[7]
  CC50: > 40 µM (active)
cells
  IC50: 22.5 µM (active)

## Oc1ccc(-c2nc3ccccc3s2)cc1
[15]
  EC50: 1.26 µM (active)
[16]
  EC50: 47.5 µM (active)
Prothrombin
  IC50: > 50 µM (not active)
